The values that follow come from patent US4786755A, “Diphenic acid monoamides” (Warner-Lambert Company, priority 1986, dated 1988).

This test deals with T1, leukotriene receptor (Cavia porcellus, UniProt Q2NNR5).
T1 construct: 20 mg original tissue wet weight of guinea pig lung membranes; tissue Kuiper Rabbit Farm, Gary, IN (animals); host or cells: guinea pig lung, crude membranes
T1 sequence (Q2NNR5 1-340): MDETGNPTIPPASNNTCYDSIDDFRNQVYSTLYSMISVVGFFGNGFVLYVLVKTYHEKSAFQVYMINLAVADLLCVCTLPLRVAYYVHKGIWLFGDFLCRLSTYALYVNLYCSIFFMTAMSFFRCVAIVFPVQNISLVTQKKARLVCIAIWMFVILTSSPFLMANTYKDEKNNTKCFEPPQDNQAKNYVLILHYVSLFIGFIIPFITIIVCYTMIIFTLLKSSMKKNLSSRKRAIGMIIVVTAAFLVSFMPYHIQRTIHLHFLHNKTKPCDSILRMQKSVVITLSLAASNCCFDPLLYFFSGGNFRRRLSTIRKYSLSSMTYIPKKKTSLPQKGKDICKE
The experiment in a line: Binding of ^3 H-Leukotriene D4 to Guinea Pig Lung Membranes (RBL). The settings on record: ^3 H-LTD4, guinea pig lung membranes; read-out: IC50 RBL1. The protocol:
Additionally, the activity, of the compounds having the Formula I of the present invention is determined by the well known leukotriene receptor binding assay that is described by R. F. Bruns, W. J. Thomsen and T. A. Pugsley in Life Sciences, 33, 645 (1983) or the Herxheimer in vivo antiallergy test described in H. Herxheimer, J. Physiol. (London), Vol. 177, p. 251 (1952).
Binding of ^3 H-Leukotriene D4 to Guinea Pig Lung Membranes (RBL)
[14,15-^3 H]leukotriene D4 (^3 H-LTD4) (25 Ci/mmol and 40 Ci/mmol) is purchased from New England Nuclear. Unlabeled LTC4 is a gift of Ono Pharmaceuticals (Japan). LTC4, LTD4, and LTE4 are purchased as methyl esters from Paesel GmbH (Frankfurt, W. Germany). Concentrations of the Paesel leukotrienes are calculated from their absorbance at 280 nm. Leukotriene esters are saponified overnight under N2 in 3.3% potassium carbonate at room temperature. Tritiated leukotrienes are stored as received from New England Nuclear at -20° C. Ono LTC4 (5 μg/ml is stored at -60° C. in phosphate buffer pH 6.8. Saponified Paesel leukotrienes are stored at -60° C. in 3.3% potassium carbonate (pH 9.0-9.5). Aliquots of leukotrienes are taken from stock solutions immediately after thawing, after which the stock solutions are immediately refrozen. 2-Amino-2-(hydroxymethyl)-1,3-propanediol (Tris) is Sigma pH 7.7 pre-set crystals, and dimethylsulfoxide is Aldrich Gold Label.
Preparation of crude lung membranes
Two pairs of lungs (1.3 g) from freshly sacrificed 300 g male guinea pigs (older animals gave substantially lower binding) from Kuiper Rabbit Farm, Gary, IN are disrupted with a Polytron PT 10 (setting 4) for 30 seconds in 20 ml ice-cold 50 mM Tris adjusted with HCl to pH 7.7 at 25° C. (Tris buffer), filtered through a single layer of gauze to remove connective tissue, and centrifuged at 50,000 xg for ten min. The pellet is resuspended by homogenization with a Polytron in 20 ml Tris buffer, centrifuged at 50,000 xg for ten min., resuspended, incubated at 37° C. for 30 minutes, and centrifuged again. The final pellet is resuspended in Tris buffer and either used fresh or stored at -70° C.
All incubations are in triplicate for 60 minutes at 25° C. in 12×75 mm polystyrene tubes containing 1 ml Tris buffer with 20 mg original tissue wet weight of guinea pig lung membranes, 0.2 nM ^3 H-LTD4 (6,000-11,000 cpm), 10 mM MgCl2, and 1% dimethylsulfoxide. Leukotrienes are diluted in Tris buffer. All other test compounds are dissolved at 10 mM in dimethylsulfoxide on the same day as the experiment, and diluted in dimethylsulfoxide to 100× the final incubation concentration. Control incubations receive an equal volume (10 μl) of dimethylsulfoxide; the resulting concentration of dimethylsulfoxide had no effect on binding. ^3 H-LTD4 is diluted to 2 nM in Tris buffer. The membrane suspension (20 mg/0.89 ml) contains sufficient MgCl2 to give 10 mM final concentration in the incubation. […] All additions are performed at 0° C. Immediately after the last addition, the incubation is initiated by agitating the rack of tubes on a vortex mixer and warming to 25° C. in a water bath. Tubes are vortexed at least once more during the incubation to ensure that the membranes remained suspended. Incubations are terminated after 60 minutes by filtering under reduced pressure through 25 mm Whatman GF/B filters followed by rapid washing three times with 4 ml of ice-cold Tris buffer. Filters are added to scintillation vials with 8 ml Formula 947 (New England Nuclear), left overnight, shaken, and the radioactivity counted in a scintillation counter (efficiency 40%). Nonspecific binding, defined as binding of ^3 H-LTD4 in the presence of 100 nM LTC4, is 300-500 cpm for all lots of ^3 H-LTD4. Binding to the filters in the absence of tissue is about 100 cpm, and is not affected by unlabeled LTC4. Specific binding, defined as total binding minus nonspecific binding, varied considerably from lot to lot of ^3 H-LTD4. […]
Take `O=C(O)c1ccccc1-c1ccccc1C(=O)Nc1ccc(CCCCCc2ccc(Cl)c(Cl)c2)cc1` [Example 58, [1,1'-Biphenyl]-2-carboxylic acid, 2'-[[[4-[5-(3,4-dichlorophenyl]pentyl]phenyl]amino]carbonyl]-]: the IC50 is 7.3 µM.
In the case of `CN(C)c1ccc(CCC(=O)c2ccc(NC(=O)c3ccccc3-c3ccccc3C(=O)O)cc2)cc1` [Example 48, [1,1'-Biphenyl]-2-carboxylic acid, 2'-[[[4-[1-oxo-3-(4-dimethylaminophenyl)propyl]phenyl]amino]carbonyl]-] it was 53.1 µM; in that of `O=C(CCc1ccc(NC(=O)c2ccccc2-c2ccccc2C(=O)O)cc1)c1ccc(Oc2ccccc2)cc1` [Example 54, [1,1'-Biphenyl]-2-carboxylic acid, 2'-[[[4-[3-oxo-3-(4-phenoxyphenyl)propyl]phenyl]amino]carbonyl]-], 17.1 µM; in that of `CC(CC(=O)CCc1ccc(NC(=O)c2ccccc2-c2ccccc2C(=O)O)cc1)c1ccccc1` (stereo not drawn) [Example 57, [1,1'-Biphenyl]-2-carboxylic acid, 2'-[[[4-[5-phenyl-3-oxohexyl]phenyl]amino]carbonyl]-], 44.9 µM.
In the case of `O=C(O)c1ccccc1-c1ccccc1C(=O)Nc1ccc(CCc2ccc(Oc3ccccc3)cc2)cc1` [Example 52] it was 13.2 µM; in that of `O=C(C=Cc1ccc(Br)cc1)c1ccc(NC(=O)c2ccccc2-c2ccccc2C(=O)O)cc1` [Example 47, [1,1'-Biphenyl]-2-carboxylic acid, 2'-[[[4-[1-oxo-3-(4-bromophenyl)-2-propenyl]phenyl]amino]carbonyl]-], 27.1 µM; in that of `O=C(O)c1ccccc1-c1ccccc1C(=O)Nc1ccc(OCCCCc2ccccc2)cc1` [Example 44, [1,1'-Biphenyl]-2-carboxylic acid, 2'-[[[4-(4-phenylbutyloxy)phenyl]amino]carbonyl]-], 1.2 µM.
Turning to `O=C(CCc1ccc(Br)cc1)c1ccc(NC(=O)c2ccccc2-c2ccccc2C(=O)O)cc1` [Example 51, [1,1'-Biphenyl]-2-carboxylic acid, 2'-[[[4-[1-oxo-3-(4-bromophenyl)propyl]phenyl]amino]-carbonyl]-], the IC50 was 7.2 µM.
`O=C(O)c1ccccc1-c1ccccc1C(=O)Nc1cccc(CCc2ccc(Oc3ccccc3)cc2)c1` [Example 53]: the IC50 was determined as 2.4 µM.
In the case of `O=C(O)c1ccccc1-c1ccccc1C(=O)Nc1ccc(CCc2cc(C(F)(F)F)cc(C(F)(F)F)c2)cc1` [Example 13, [1,1'-Biphenyl]-2-carboxylic acid, 2'-[[[4-[2-[3,5-bis(trifluoromethyl)phenyl]ethyl]phenyl]amino]carbonyl]-] it was 5.4 µM; in that of `CCCCCCCCCCc1ccc(NC(=O)c2ccccc2-c2ccccc2C(=O)O)cc1` [Example 20], 11.2 µM; in that of `O=C(O)c1ccccc1-c1ccccc1C(=O)Nc1cccc(CCCCc2ccc(Cl)c(Cl)c2)c1` [Example 50, [1,1'-Biphenyl]-2-carboxylic acid, 2'-[[[3-[4-(3,4-dichlorophenyl)butyl]phenyl]amino]carbonyl]-], 0.7 µM.
In the case of `O=C(CCCCc1ccc(Cl)c(Cl)c1)c1ccc(NC(=O)c2ccccc2-c2ccccc2C(=O)O)cc1` [Example 56, [1,1'-Biphenyl]-2-carboxylic acid, 2'-[[[4-[5-(3,4-dichlorophenyl)-1-oxopentyl]phenyl]amino]-carbonyl]-] it was 3.8 µM; in that of `O=C(O)c1ccccc1-c1ccccc1C(=O)Nc1ccc(CCCc2ccc(Oc3ccccc3)cc2)cc1` [Example 55, [1,1'-Biphenyl]-2-carboxylic acid, 2'-[[[4-[3-(4-phenoxyphenyl)propyl]phenyl]amino]carbonyl]-], 13.1 µM; in that of `O=C(O)c1ccccc1-c1ccccc1C(=O)Nc1cccc(CCCc2ccc(Cl)c(Cl)c2)c1` [Example 6, [1,1'-Biphenyl]-2-carboxylic acid, 2'-[[[3-[3-(3,4-dichlorophenyl)propyl]phenyl]amino]carbonyl]], 1 µM.

Broadly, the IC50 is the midpoint of a concentration-inhibition curve.
